Reference: US5631133A, “Transition in transcriptional activation by intracellular hormone receptors at the tumor stage of dermal fibrosarcoma development” (The Regents of the University of California, priority 1995, dated 1997)

Columns and labels:
[1] = molecular target: glucocorticoid receptor (GR) (Mus musculus, UniProt P06537); conditions: NF, MF, AF and FS cells; 500 nM dexamethasone, 2 h
Procedure: Cells were grown in 24-well plates (Corning). The medium was changed to serum-free, phenol-red free DMEM, supplemented with insulin (5 μg/ml) and transferrin (10 μg/ml), with or without 500 nM dexamethasone for 2 h. After three washes with ice-cold PBS, cells were fixed with cold (-20° C.) methanol for 10 min, and then washed with TBS. Nonspecific binding sites were blocked in blocking buffer (BB) (TBS, 1% Triton, 1% glycine, 3% bovine serum albumin and 10% normal goat serum). […] Diaminobenzidine (Sigma) was used as a substrate for the peroxidase reaction.
To assesss the nature of the differential GR activity, we examined the ligand-dependent nuclear translocation of GR in normal dermal fibroblasts and the three progressive conditions, MF, AF and FS.

[2] = molecular target: endogenous glucocorticoid receptor (GR) (Mus musculus, UniProt P06537)
Procedure: Cultures were established from skin and tumor tissues of several independent BPV transgenic mice (Sippola-Thiele et al., 1989), and maintained in Dulbecco's modified Eagle's medium (DMEM-21, high glucose formulation; Gibco-BRL) containing 8% fetal calf serum (Hyclone). Cells were propagated for no longer than five weeks and always used at low passage number (1-30). Several cultures were tested from each stage of the tumorigenic process: normal fibroblasts, NF (23784, 40950); mild fibromatosis, MF (39614, 14249, 27877); aggressive fibromatosis, AF (BPV7, BPV3, BPV21); fibrosarcoma, FS (BPV1, BPV22, BPV2, BPV11).
Cells were plated at least 12 h before transfeetion at ~0.5×10^6 cells per 6 cm dish. Reporter gene DNA (2 μg), together with the 6RZ (100 ng) as an internal control for efficiency of transfection, were introduced into cells using the DEAE-dextran method (Ausubel). Where indicated, the expression vector 6RGR was co-transfected. After exposure to the DNA/DEAE-dextran mixture, the cells were incubated for 24 h in fresh medium containing charcoal-strippedserum (Miesfeld et al., 1987) with or without 100 nM dexamethasone (Sigma). Cells were harvested and the luciferase activity measured according to the instructions of the manufacturer (Promega) and normalized for β-galactosidase expression as previously described (Miner and Yamamoto (1992) Genes Dev., 6:2491-2501). Each experiment was repeated at least six times and the results averaged.
To monitor the activity of the endogenous glucocorticoid receptor (GR) during dermal fibroblast tumorigenesis, we performed transient transfection assays using low passage primary cell lines representative of the four stages in this multistep pathway: normal dermal fibroblasts, NF; mild fibromatosis, MF; aggressive fibromatosis, AF; fibrosarcoma, FS. […] We first measured the hormone responsiveness of a reporter construct, TAT3-Luc, containing three tandem simple GREs derived from the tyrosine aminotransferase (TAT) gene (Jantzen et al., 1987).

[3] = test system: GR and AP-1 (composite element G(26)A); assay: Transient transfection of G(26)A3-Luc composite GRE luciferase reporter, hormone responsiveness; assay type: cell-based, mouse; conditions: 100 nM dexamethasone, 24 h
Text: Where indicated, the expression vector 6RGR was co-transfected.
In view of the observed changes in GR and AP-1 activities, we next tested a composite element that requires both factors for transcriptional activation. The synthetic composite element, G(26)A, which resembles a sequence in the glucocorticoid regulatory region of the glutamine synthetase gene (Zhang and Young (1991) J. Biol. Chem., 266:24332-24338), contains the TAT GRE sequence linked through a 15 bp spacer to the collagenase AP-1 sequence. In this configuration, neither GR alone nor AP-1 alone (either Jun homodimers or Jun-Fos heterodimers) activates a linked reporter gene in transfected embryonal earcinoma F9 cells (which express low levels of endogenous GR and AP-1 factors), whereas co-transfection of GR and AP-1 (Jun-Jun or Jun-Fos) produces a strong synergistic activation upon hormone addition. We transfected a luciferase reporter construct containing three copies of the G(26)A composite element, G(26)A3-Luc, into cell cultures representing each stage of the fibrosarcoma progression.

Chain of endogenous glucocorticoid receptor (GR) (P06537 whole entry): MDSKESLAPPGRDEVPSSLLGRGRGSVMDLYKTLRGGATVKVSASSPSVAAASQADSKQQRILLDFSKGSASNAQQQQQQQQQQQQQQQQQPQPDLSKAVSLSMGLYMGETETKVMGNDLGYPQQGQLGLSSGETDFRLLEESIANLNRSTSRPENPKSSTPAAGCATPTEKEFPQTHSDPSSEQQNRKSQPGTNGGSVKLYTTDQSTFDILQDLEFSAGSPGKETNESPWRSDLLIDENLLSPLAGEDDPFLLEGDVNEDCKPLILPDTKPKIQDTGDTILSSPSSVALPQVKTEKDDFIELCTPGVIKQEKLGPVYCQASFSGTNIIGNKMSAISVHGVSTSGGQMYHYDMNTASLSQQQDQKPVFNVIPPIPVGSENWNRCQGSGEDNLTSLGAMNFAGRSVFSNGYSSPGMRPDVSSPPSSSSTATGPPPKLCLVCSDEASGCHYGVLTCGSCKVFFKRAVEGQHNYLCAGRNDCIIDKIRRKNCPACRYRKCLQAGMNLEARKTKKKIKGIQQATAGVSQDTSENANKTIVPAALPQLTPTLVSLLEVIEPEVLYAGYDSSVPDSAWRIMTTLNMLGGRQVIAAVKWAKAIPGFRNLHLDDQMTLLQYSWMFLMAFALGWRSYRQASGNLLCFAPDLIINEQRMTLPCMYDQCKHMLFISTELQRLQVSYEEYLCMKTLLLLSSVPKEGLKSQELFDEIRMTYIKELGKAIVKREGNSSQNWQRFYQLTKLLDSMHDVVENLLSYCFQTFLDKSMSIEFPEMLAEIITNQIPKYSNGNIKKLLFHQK
Chain of glucocorticoid receptor (GR) (P06537 whole entry): as above

C[C@@H]1C[C@H]2[C@@H]3CCC4=CC(=O)C=C[C@]4(C)[C@@]3(F)[C@@H](O)C[C@]2(C)[C@@]1(O)C(=O)CO [dexamethasone]
nuclear translocation of GR [1]: efficiently translocated to the nucleus
hormonal induction of luciferase activity (TAT3-Luc) ([2]; FS (fibrosarcoma) cells, 100 nM dexamethasone, 24 h): strong hormonal induction
stimulation of basal luciferase activity (TAT3-Luc) ([2]; NF, MF or AF cell lines, 100 nM dexamethasone, 24 h): only a modest stimulation
transcriptional response (TAT3-Luc) ([2]; nNF, dermal fibroblasts from non-transgenic mice): low transcriptional response
hormonal induction through the G(26)A element ([3]; AF cells): only a modest hormonal induction
induction of luciferase activity (G(26)A3-Luc) ([3]; tumor (FS) cells): dramatically induced
